The values that follow come from ChEMBL document CHEMBL1137281, “Synthesis and biological evaluation of copper (II) complexes of sterically hindered o-aminophenol derivatives as antimicrobial agents” (2006).

Converted amounts (≈) assume the structure as drawn.

In general, MIC refers to the lowest concentration found to suppress growth. Read a low MIC as a more susceptible organism.

What all share (format): functional
For experiment [1], the system named is Lipomyces lipofer. The experiment is described as follows: Antimicrobial activity against Lipomyces lipofer.
The subject of experiment [2] is Papiliotrema laurentii. As to the kind of experiment: Antifungal activity against Cryptococcus laurentii.
Experiment [3] relates to Aspergillus niger. The experiment is described as follows: Antifungal activity against Aspergillus niger.
Experiment [4] concerns Pseudomonas aeruginosa. The experiment is described as follows: Antimicrobial activity against Pseudomonas aeruginosa.
The subject of experiment [5] is Escherichia coli. The experiment is described as follows: Antibacterial activity against Escherichia coli.
The subject of experiment [6] is Rhodotorula mucilaginosa. As to the kind of experiment: Antimicrobial activity against Rhodotorula rubra.
Experiment [7] deals with Bacillus subtilis. As to the kind of experiment: Antibacterial activity against Bacillus subtilis.
In experiment [8] the test system is Candida albicans. The experiment is described as follows: Antimicrobial activity against Candida albicans.
Experiment [9] concerns Cyberlindnera jadinii. As to the kind of experiment: Antimicrobial activity against Candida utilis. The following applies: Williopsis jadinii.
A short description of experiment [10]: Antimicrobial activity against Hansenula sp. The following applies: Pichia.
Experiment [11] deals with Staphylococcus saprophyticus. As to the kind of experiment: Antibacterial activity against Staphylococcus saprophyticus.
In experiment [12] the test system is Micrococcus luteus. As to the kind of experiment: Antimicrobial activity against Sarcina lutea.
Experiment [13] deals with Candida boidinii. The experiment is described as follows: Antimicrobial activity against Candida boidinii.
In experiment [14] the test system is Komagataella pastoris. The experiment is described as follows: Antimicrobial activity against Pichia pastoris.
The test system of experiment [15] is Saccharomyces cerevisiae. As to the kind of experiment: Antimicrobial activity against Saccharomyces cerevisiae.
The subject of experiment [16] is Serratia marcescens. As to the kind of experiment: Antimicrobial activity against Serratia marcescens.

`CC(C)(C)c1cc(Nc2ccccc2)c(O)c(C(C)(C)C)c1`: the minimal inhibitory concentration (MIC) in experiment [1], in experiment [2], in experiment [3], in [4], in experiment [5] and in experiment [6] was over 50 µg/mL throughout. Moreover, the MIC in experiment [7], in [8], in experiment [9], in [10], in experiment [11] and in experiment [12] was over 50 µg/mL each time. For the same compound, the minimum inhibitory concentration (MIC) in experiment [13], in experiment [14], in experiment [15] and in [16] was over 50 µg/mL in each case.
For the compound `CC(C)(C)c1cc(N)c(O)c(C(C)(C)C)c1`, the MIC in experiment [1] is 6.25 µg/mL (≈ 28.2 µM); in [2], 6.25 µg/mL (≈ 28.2 µM); in experiment [3], over 50 µg/mL; in experiment [4], over 50 µg/mL; in experiment [5] it was over 50 µg/mL; in experiment [6], 50 µg/mL (≈ 226 µM). For the same compound, the MIC was 25 µg/mL (≈ 113 µM) in experiment [7]; over 50 µg/mL in experiment [8]; over 50 µg/mL in experiment [9]; 6.25 µg/mL (≈ 28.2 µM) in experiment [10]; 12.5 µg/mL (≈ 56.5 µM) in [11]; 12.5 µg/mL (≈ 56.5 µM) in [12]. Besides, the MIC in [13] was over 50 µg/mL; in [14], 6.25 µg/mL (≈ 28.2 µM); in [15] it was 6.25 µg/mL (≈ 28.2 µM); in experiment [16], over 50 µg/mL.
Take `Nc1ccccc1O` [QUESTIOMYCIN B]: the MIC in experiment [3] was over 50 µg/mL; in experiment [4] it was over 50 µg/mL; in [5], over 50 µg/mL; in experiment [7], over 25 µg/mL; in [8], over 50 µg/mL; in [9], over 50 µg/mL. Besides, the MIC in experiment [10], in [11], in experiment [13], in [14], in [15] and in experiment [16] was over 50 µg/mL each time.
